Measurements taken from EP4775577A1, “RAS INHIBITOR” (Tyligand Bioscience (Shanghai) Limited, priority 2023, dated 2025).

Experiments:
[1] = system: KRAS G12D mutant AGS cells; assay: Proliferation inhibition of AGS cells, CellTiter-Glo assay; type: cell-based, human; details: Homo sapiens, AGS, 72 h, 3 days, CTG; read-out: AGS IC50/nM
Procedure, shortened: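 AGS cells at 1500 cells/well in F12K + 10% FBS were exposed for 3 days at 37°C to nine 3-fold dilutions from 10 µM top concentration, in duplicate. Viability read by CellTiter-Glo luminescence; IC50 (nM) from dose-response-inhibition fitting.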

Pharmacokinetics in mice = details: mouse, in vivo, po, 20 mg/kg
Procedure: Male CD-1 mice, aged 6-8 weeks, were purchased from Zhejiang Vital River Laboratory Animal Co., Ltd.
For the PO administration group, compounds were formulated in 0.5% Tween 80 and 99.5% (0.5%MC (400cp)) vehicle or 0.5%MC (400cp) vehicle to a final concentration of 1 mg/mL or 2 mg/mL for each compound. The drug formulation was administered to CD-1 mice via gavage at a dose of 10 mL/kg. Blood samples were collected from the submandibular vein or other suitable means at 15 min, 30 min, 1 h, 2 h, 4 h, 6 h, 8 h, and 24 h after administration. The blood samples were centrifuged at low temperature for 5 minutes, and the plasma was collected and stored at -80°C for analysis.
10 µL of plasma sample was taken, 200 µL of methanol containing an internal standard as a precipitant was added to precipitate plasma proteins, the compounds to be tested in the plasma was extracted, centrifuged at low temperature, and 10 µL of the supernatant was injected. The drug concentration in blood plasma was analyzed by LC-MS/MS. The pharmacokinetic parameters were calculated using Winnonlin based on the blood drug concentration data at different time points.

[2] = system: KRAS G12V mutant NCI-H727 cells; assay: Proliferation inhibition of NCI-H727 cells, 3D CellTiter-Glo assay (Method B); type: cell-based, human; details: Homo sapiens, NCI-H727, 120 h, Method B; 3D culture with 0.65% methylcellulose, 5 days, CTG; read-out: NCI-H727 IC50/nM
Procedure, shortened: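 Cells grown in 3D medium (RPMI-1640, 10% FBS, 0.65% methylcellulose) overnight, then treated 5 days at 37 °C, 5% CO2 with 9 threefold dilutions from 10 µM top working concentration, duplicate wells. CellTiter-Glo luminescence read; IC50 (nM) fitted by dose-response-inhibition equation.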

`CCN1CC/C(=C\F)[C@](C)(COc2nc(N3Cc4c(COC)c(C(=O)N(C)C)nn4CC[C@@H]3C)c3cc(Cl)c(-c4c(F)ccc5sc(N)c(C#N)c45)c(F)c3n2)C1` (single isomer, unassigned) [Example 228A] showed an IC50 [1] of under 1.5 nM, an AUC(0-t) at 8 h (Pharmacokinetics in mice) of 4130 ng·h/mL and an IC50 [2] of under 1.5 nM.
